# Reference: the NIST ThermoML archive (doi:10.1021/je060249h)
# Several values for one entry are separate records, joined by “and”; a condition that tells them apart may be missing. Identical values can stand only once. Numbers after ± are expanded uncertainties.
# Settings: Liquid
structure (smiles),measurement,setting,value
"ClCc1nc2ccccc2o1 [2-(chloromethyl)-1,3-benzoxazole]",vapor or sublimation pressure,"347.65 K, Ebulliometric method (Recirculating still)",0.08 ± 0.06 kPa
same,vapor or sublimation pressure,"357.1 K, Ebulliometric method (Recirculating still)",0.16 ± 0.06 kPa
same,vapor or sublimation pressure,"368.45 K, Ebulliometric method (Recirculating still)",0.32 ± 0.07 kPa
same,vapor or sublimation pressure,"375.15 K, Ebulliometric method (Recirculating still)",0.59 ± 0.08 kPa
same,vapor or sublimation pressure,"378.2 K, Ebulliometric method (Recirculating still)",0.69 ± 0.09 kPa
same,vapor or sublimation pressure,"383.2 K, Ebulliometric method (Recirculating still)",0.96 ± 0.12 kPa
same,vapor or sublimation pressure,"388.15 K, Ebulliometric method (Recirculating still)",1.39 ± 0.12 kPa
same,vapor or sublimation pressure,"393.5 K, Ebulliometric method (Recirculating still)",1.76 ± 0.44 kPa
same,vapor or sublimation pressure,"393.85 K, Ebulliometric method (Recirculating still)",1.87 ± 0.44 kPa
same,vapor or sublimation pressure,"395.6 K, Ebulliometric method (Recirculating still)",2.03 ± 0.2 kPa
same,vapor or sublimation pressure,"400.3 K, Ebulliometric method (Recirculating still)",2.72 ± 0.19 kPa
same,vapor or sublimation pressure,"405.25 K, Ebulliometric method (Recirculating still)",3.28 ± 0.25 kPa
same,vapor or sublimation pressure,"408.35 K, Ebulliometric method (Recirculating still)",4.19 ± 0.34 kPa
same,vapor or sublimation pressure,"411.9 K, Ebulliometric method (Recirculating still)",4.88 ± 0.34 kPa
same,vapor or sublimation pressure,"417.3 K, Ebulliometric method (Recirculating still)",6.32 ± 1.7 kPa
same,vapor or sublimation pressure,"418.1 K, Ebulliometric method (Recirculating still)",7.29 ± 1.4 kPa
same,vapor or sublimation pressure,"418.85 K, Ebulliometric method (Recirculating still)",7.91 ± 1.2 kPa
same,vapor or sublimation pressure,"418.9 K, Ebulliometric method (Recirculating still)",7.92 ± 0.73 kPa
same,vapor or sublimation pressure,"422.05 K, Ebulliometric method (Recirculating still)",9.41 ± 0.66 kPa
same,vapor or sublimation pressure,"423.2 K, Ebulliometric method (Recirculating still)",9.92 ± 0.73 kPa and 10.59 ± 0.75 kPa
same,vapor or sublimation pressure,"424.2 K, Ebulliometric method (Recirculating still)",10.53 ± 0.9 kPa
same,vapor or sublimation pressure,"424.55 K, Ebulliometric method (Recirculating still)",10.8 ± 1.1 kPa
Clc1ccccc1 [chlorobenzene],vapor or sublimation pressure,330.5 K,7.92 ± 0.55 kPa
same,vapor or sublimation pressure,337.4 K,10.59 ± 0.55 kPa
